Test results: patent US20130136811A1, “Compositions and Methods for Pain Reduction” (priority 2010, published 2013)
Several values for one entry are separate records, joined by “and”; a condition that tells them apart may be missing. Identical values can stand only once.

Legend:
[1] = system: mouse formalin pain model; assay: mouse formalin pain model (paw licking); type: in vivo; conditions: for Duration of Licking: 200 mg/kg, individual animals 01-08; for Area Under the Curve, Drug Treated: 200 mg/kg i.p.
Method: The formalin test for antinociceptive activity is described in numerous publications, e.g., Hunskaar, S. O. B. Fasmer, and K. Hole, J. Neurosci. Methods 14: 69-76 (1985). The formalin test is a chemically-induced tonic pain model in which biphasic changes of nociceptive behavior are assessed and spinal/supraspinal plasticity of nociception is considered as a molecular basis for neuropathic pain particularly during the second (late) phase of the test, during which most clinically used drugs against neuropathic pain are active. The formalin test is accepted as an art recognized model of persistent clinical pain.
The formalin test (Wheeler-Aceto H, Porreca F, Cowan A. The rat paw formalin test: comparison of noxious agents. Pain 1990; 40:229-38) involves injection of 0.5% formalin into the mouse hind paw. The injection elicits a distinct biphasic behavioral profile in response to the formalin injection characterized by licking of the affected paw, and the number of licks is measured as a proxy for perceived pain. The first (acute) phase corresponds to the direct stimulation of peripheral fibers, while the second (inflammatory) phase is caused by the release of inflammatory mediators from the damaged tissue and nerve endings. Thus, this model is ideally suited to test the efficacy of Wogonin against the acute and chronic hyper-responsive neuronal discharges following activation of peripheral nerve fibers.
The results of the formalin test are given both as raw data (“Response”) and in an aggregate, analyzed form (“Analysis”). In the Response section, each Trial involves sixteen animals, eight controls given an i.p. injection of vehicle and eight given Wogonin at a specified dose. The data recorded for each animal is the amount of time spent licking the affected hind paw in a two-minute period. These two-minute periods occur at five-minute intervals and continue for […]. […] From this plot, the area under the cure (AUC) is determined for each animal during both the acute and inflammatory stages. The AUC for each phase is shown in the analysis section of the data sheet for both control and Wogonin-treated animals. The AUC for each Wogonin-treated animal is compared to the average result from the control group, yielding an average percent of control (reported with the SEM and p value). Significant reductions in this number indicate a reduction in licking, and, presumably, a reduction of perceived pain.
Male Swiss Webster NIH mice (20-30 g; Harlan, San Diego, Calif.) were used in the experiments described herein. Food was withdrawn on the day of experiment. Mice were placed in Plexiglass jars for at least 1 hour to accommodate to the environment. Following the accommodation period, mice were weighed and given Wogonin administered intraperitoneal (i.p.) or the appropriate volume of vehicle (10% Tween-80). Fifteen minutes after the i.p. dosing, mice were injected with formalin (20 μL of 5% formaldehyde solution in saline) into the dorsal surface of the right hind paw. Mice were transferred to the Plexiglass jars and monitored for the amount of time spent licking or biting the injected paw. Periods of licking and biting were recorded in 5 minute intervals for 40 minutes after the formalin injection. All experiments were done in a blinded manner. The early phase (acute) of the formalin response is measured as licking/biting between 0-10 minutes, and the late phase (inflammatory) is measured from 10-40 minutes. Differences between vehicle and Wogonin-treated groups are analyzed by one-way analysis of variance (ANOVA). A P value <0.05 is considered significant. Activity in blocking the acute and second phase of formalin-induced paw-licking activity is indicative that compounds are efficacious for acute and chronic pain. A significant response to both the acute and the inflammatory phases of the test was observed.

[2] = system: primary cultures of mouse cortical neurons; assay: NMDAR-mediated excitotoxicity, LDH cell death assay; type: cell-based; conditions: for neuroprotective effect (% protection): NMDA 200 μM 5 minutes, glycine 10 μM, LDH 24 hours after
Method: Studies were carried out to determine whether application of Wogonin can prevent N-methyl-D-Aspartate receptor (NMDAR)-mediated excitotoxicity in primary neuronal cultures from mouse cortex in vitro. In particular, detailed dose/response curves of Wogonin applied together with and for the duration of application of NMDA were generated. NMDAR-induced cytotoxicity can lead to fulminant cell death, necrosis, or a delayed form of cell death (apoptosis). While necrosis leads to immediate cell lysis, apoptotic cell death develops over time and is distinguished by a number of criteria such as characteristic morphological changes and DNA fragmentation. The LDH assay was used for the determination of cell death. This assay assesses primary necrosis as well as secondary, necrotic cell death subsequent to apoptosis.
For these experiments, cytotoxicity assays were conducted in primary cultures of mouse cortical neurons after 10 days in vitro using an art-recognized assay systema (Sun X, Chan L N, Gong X, Sucher N J. N-methyl-D-Aspartate receptor antagonist activity in traditional Chinese stroke medicines. NeuroSignals, 2003; 12:31-38.) Cultured neurons were exposed to NMDA (200 μM; 5 minutes) and co-agonist glycine (10 μM) in the nominal absence of magnesium and the presence of increasing concentrations of Wogonin. Measurements were performed for each dose of Wogonin in triplicate in at least three independent experiments. Wogonin was added to the culture in three different ways: 1) before, concomitant with and after NMDA, 2) concomitant with and after NMDA and 3) after NMDA. Twenty-four hours after exposure to NMDA cell death is determined by colorimetric lactate dehydrogenase (LDH) assay.

In the case of `COc1c(O)cc(O)c2c(=O)cc(-c3ccccc3)oc12` [Wogonin, 5,7-dihydroxy-8-methoxyflavone], the “Duration of Licking” value ([1]; 0 mm) is reported as 0.00 sec (3×) and 35.48 sec and 21.75 sec and 53.96 sec and 44.26 sec and 32.29 sec, the “Duration of Licking” value ([1]; 5 min) is reported as 0.00 s and the “Duration of Licking” value ([1]; 10 min) is reported as 0.00 s. For the same compound, the “Duration of Licking” value ([1]; 20 min) was 0.00 sec (7×) and 16.00 sec, the “Duration of Licking” value ([1]; 25 min) was 0.00 sec (5×) and 3.89 sec and 20.61 sec and 10.96 sec and the “Duration of Licking” value ([1]; 30 min) was 0.00 sec (4×) and 29.12 sec and 55.07 sec and 2.95 sec and 37.69 sec. The “Duration of Licking” value ([1]; 35 min) was 0.00 sec (6×) and 21.24 sec and 12.73 sec, the “Duration of Licking” value ([1]; 40 min) was 0.00 sec (6×) and 20.18 sec and 27.36 sec and the “Area Under the Curve, Drug Treated” value ([1]; Acute phase) was 58.7. The “Area Under the Curve, Drug Treated” value ([1]; Inflammatory phase) was 146.3, the overt toxicity ([1]; mouse models) was “Overt toxicity was not seen” and the “neuroprotective effect (% protection)” value ([2]; 10^−4 M Wogonin) was > 75%. For the same compound, the “neuroprotective effect (% protection)” value ([2]; 10^−9 M Wogonin) was 0% and the IC50 ([2]; Cortical neurone, mouse cortical neurons, LDH assay, read-out: IC50, inhibition of neuronal death on exposure to N-methyl-D-aspartate) was 2000 nM.
